According to US20240239790A1, “7-Morpholino-1,6-Naphthyridin-5-yl Derivatives and Pharmaceutical Compositions Thereof Useful as DNA-PK Inhibitor” (adMare Therapeutics Society, priority 2021, published 2024):
Read-outs that look alike come from different tables or passages of the source.

What was measured:
DNA-PK = molecular target: T1, DNA-PK (Homo sapiens, UniProt P78527); assay: DNA-PK Assay for Biochemical Enzymatic Inhibition (ADP Glo Kinase assay); details: DNA-PK enzyme, Table 1
T1 construct: purchased Invitrogen PR9107A
Description: A biochemical assay was performed to identify IC50 values against DNA-PK activity in a two-step reaction with a kinase reaction followed by ADP Glo™ Kinase assay Kit (Promega V9102).
Three-fold serial dilutions of compounds in DMSO were prepared in kinase assay buffer (50 mM HEPES pH 7.5, 20 mM MgCl2, 100 mM KCl, 50 μM DTT, 10 μg/ml calf thymus DNA, 0.01% Tween 20). Kinase assay buffer was used to prepare compound treatments to 0.02% DMSO (dimethyl sulphoxide) content. DMSO controls were prepared to produce a maximum and minimum luminescence signal for normalization. Substrate (Anaspec, AS-60210-5) and ATP (Promega V9102) and ATP mix was prepared by dilution in kinase assay buffer for 434.4 μM and 64.4 μM final assay concentrations, respectively. Compounds and control were added to 25 ng DNA-PK enzyme (Invitrogen, PR9107A) diluted in kinase buffer in assay plate (Corning 267459) and incubated for 15 minutes at room temperature prior to addition of substrate and ATP mix.
Throughout the assay, each time a reagent was added to the microplate, it was centrifuged for 1 minute at 1300 rcf. All reagents were added, and incubations carried out at room temperature. The reaction was then incubated for 60 minutes. ADP-ATP standards at 0, 4, 10, 40, 80, and 100% ADP (prepared as specified in the ADP Glo™ Kinase assay kit) were also added to the microplate at a volume equal to the total kinase reaction. The ADP Glo™ Kinase Assay kit was then used to quantify DNA-PK activity: following the 60-minute incubation, a 1:1 volume of ADP Glo reagent was added to all wells, then following a further 45-minute incubation, a 1:1 volume of Kinase Detection Reagent was added to all wells. After this two-step assay, plates were incubated in a Synergy-Neo2 plate reader for 30 minutes with gentle shaking, followed by endpoint luminescent read Luminescence data was normalized by subtracting the background signal and expressing all background-adjusted values as a percentage of the average maximum signal. The data was then expressed as percent inhibition by subtracting from 100% (i.e. maximum luminescent signal will be 0% inhibition) and the resulting data plotted against ten concentration points on a logarithmic scale, using GraphPad Prism. Non-linear regression analysis was performed on each concentration response curve and the log [inhibitor] vs response—variable slope (four parameters) equation was selected to generate IC50 values.

[1] = molecular target: T2, DNA-PK phosphorylation at Serine 2056 (Homo sapiens, UniProt P78527); assay: Cellular Assay for Inhibition of DNA-PK Phosphorylation at Serine 2056 in FaDu cells (sandwich ELISA, neocarzinostatin); type: cell-based; details: pSer2056 DNA-PK, neocarzinostatin 1 μg/mL, Table 1
T2 construct: FaDu cells were purchased from ATCC; host or cells: FaDu
Method in brief: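 pSer2056 and total DNA-PK were measured by sandwich ELISA in BCA-normalised FaDu lysates. Cells had 1 h compound exposure (0.3% DMSO), then 2 h with 1 μg/mL final neocarzinostatin. IC50 was fitted (variable slope) to % inhibition scaled against NCS-stimulated and DMSO-only controls.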

[2] = tested on: pDNA-PK induction in HCT116 tumour spheroids; assay: Multicellular tumour spheroid + radiation, pDNA-PK (ser2056) inhibition, immunohistochemical endpoint, HCT116; type: cell-based; details: Homo sapiens, 20 Gy, 20% O2
Description: Multicellular tumour spheroids determination of compound inhibition of pDNA-PK induction following radiation. Tumour spheroids were grown to approximately 0.5 mm in diameter and irradiated with 20 Gy in combination with inhibitor test compounds to determine their potency. Inhibitor concentration for 50% reduction in pDNA-PK induction (IC50) was determined via immunohistochemical staining in spheroid cryosections taken 2 hours following radiation.
(§1) Spheroid+radiation pDNA-PK. Radiation: 20 Gy. Drug: serial dilution 5 or 10 μM down to 3.5 nM (11 wells). Spheroids: 3-6 spheroids per well (300-500 μm diameter). 20% 02 and 5% CO2. 96 well plate format.
Protocol: pre-incubate 1 hours with drug, irradiate with 20 Gy, post-incubate 2 hours with drug, freeze and cryosection ×3 replicates.
Endpoint: fluorescent immunostin pDNA-PK ser2056 and image on microscope.
Analysis: determine EC50 concentration that decreases pDNA-PK induction by 50% after radiation.
Multicellular tumour spheroids determination of compound inhibition of pDNA-PK induction following radiation. Tumour spheroids were grown to approximately 0.5 mm in diameter and irradiated with 20 Gy in combination with inhibitor test compounds to determine their potency. Inhibitor concentration for 50% reduction in pDNA-PK induction (IC50) was determined via immunohistochemical staining in spheroid cryosections taken 2 hours following radiation. For cell survival endpoint 8 Gy radiation was used and 3 hours following radiation spheroids were dissociated, counted and plated for colony forming endpoint.
as §1, with “format. Endpoint: fluorescent immunostain pDNA-PK ser2056 and image on microscope. Analysis: determine EC50 concentrations that decreases pDNA-PK induction by 50% after irradiation.” for “format.”
Multicellular tumour spheroids were used to determine potency of test compounds in a 3D tissue environment using inhibition of pDNA-PK induction following radiation or cell survival as the endpoint. For the pDNA-PK endpoint HCT116 or FaDU tumour spheroids were grown to approximately 0.5 mm in diameter and irradiated with 20 Gy in combination with inhibitor test compounds to determine their potency. Experiments were carried out in 96 well plates containing 0.7 mls of MEM media containing 10% FBS and 10 mM glucose under 20% O2 & 5% CO2 at 37° C. Following dilution of compounds 1:1000 from DMSO stocks, compounds were serially diluted from 10 μM down to 3.5 nM and 5-10 spheroids added. 96 well plates were constantly stirred to avoid spheroids settling during the course of the experiment. The inhibitor concentration for 50% reduction in pDNA-PK induction (EC50) was determined via immunohistochemical staining in spheroid cryosections taken 2 hours following radiation using anti-pDNA-PK (ser 2056) and fixed immediately in formalin following sectioning. For cell survival endpoint 8 Gy radiation was used and, 3 hours following radiation, spheroids were dissociated, counted and plated for colony forming endpoint. Data presented in the table compound potency as EC50 [μM].

[3] = HCT-116, 2 h, spheroids, Example 8, read-out: Cell line: HCT116 Immunohistochemical endpoint pDNA-PK inhibition EC50
[4] = HCT-116, 2 hours following radiation, Example 9 Study 2, read-out: Spheroid Cell line: HCT116 Immunohistochemical endpoint pDNA-PK inhibition EC50
[5] = HCT-116, Spheroid, Cell Line: HCT115 (so in the source), 2 hours following radiation, Example 7, read-out: EC50, Immunohistochemical endpoint, pDNA-PK inhibition

SMILES	IC50 (DNA-PK)	IC50 [1]	EC50 [2, 3]	EC50 [2, 4]	EC50 [2, 5]
CN(C)C(=O)N[C@H]1CC[C@@H](Oc2nc(N3CCOCC3)cc3ncccc23)CC1 [Compound 153, 1,1-Dimethyl-3-((1s,4s)-4-((7-morpholino-1,6-naphthyridin-5-yl)oxy)cyclohexyl)urea]	1 to 10 nM	100 to 1000 nM	10 to 100 µM	10 to 100 µM	10 to 100 µM
O=C(Nc1ccccn1)[C@H]1CC[C@@H](Oc2nc(N3CCOCC3)cc3ncccc23)CC1 [Compound 154c, (1S,4S)-4-((7-morpholino-1,6-naphthyridin-5-yl)oxy)-N-(pyridin-2-yl)cyclohexane-1-carboxamide]	1 to 10 nM	100 to 1000 nM	1 to 10 µM	1 to 10 µM	1 to 10 µM
COC(=O)c1cnc2cc(N3CCOCC3)nc(O[C@H]3CC[C@@H](n4ccnc4)CC3)c2c1 [Compound 164, methyl 5-(((1s,4s)-4-(1H-imidazol-1-yl)cyclohexyl)oxy)-7-morpholino-1,6-naphthyridine-3-carboxylate]	1 to 10 nM	1000 to 10000 nM	1 to 10 µM	1 to 10 µM	1 to 10 µM
CCCS(=O)(=O)NC(=O)c1cnc2cc(N3CCOCC3)nc(O[C@H]3CC[C@@H](n4ccnc4)CC3)c2c1 [Compound 173, 5-(((1s,4s)-4-(1H-imidazol-1-yl)cyclohexyl)oxy)-7-morpholino-N-(propylsulfonyl)-1,6-naphthyridine-3-carboxamide]	1 to 10 nM	10000 to 30000 nM	10 to 100 µM	10 to 100 µM	10 to 100 µM
O=C(NS(=O)(=O)C1CC1)c1cnc2cc(N3CCOCC3)nc(O[C@H]3CC[C@@H](n4ccnc4)CC3)c2c1 [Compound 174, 5-(((1s,4s)-4-(1H-imidazol-1-yl)cyclohexyl)oxy)-N-(cyclopropylsulfonyl)-7-morpholino-1,6-naphthyridine-3-carboxamide]	1 to 10 nM	10000 to 30000 nM	10 to 100 µM	10 to 100 µM	10 to 100 µM
CCOC(=O)c1cnc2cc(N3CCOCC3)nc(O[C@H]3CC[C@@H](Nc4ncc(OCC(=O)N(C)C)cn4)CC3)c2c1 [Compound 179, ethyl 5-(((1s,4s)-4-((5-(2-(dimethylamino)-2-oxoethoxy)pyrimidin-2-yl)amino)cyclohexyl)oxy)-7-morpholino-1,6-naphthyridine-3-carboxylate]	1 to 10 nM	1000 to 10000 nM	1 to 10 µM	10 to 100 µM	10 to 100 µM
CN(C)C(=O)COc1cnc(N[C@H]2CC[C@@H](Oc3nc(N4CCOCC4)cc4ncc(C(=O)O)cc34)CC2)nc1 [Compound 180, 5-(((1s,4s)-4-((5-(2-(dimethylamino)-2-oxoethoxy)pyrimidin-2-yl)amino)cyclohexyl)oxy)-7-morpholino-1,6-naphthyridine-3-carboxylic acid]	< 0.5 nM	10000 to 30000 nM		10 to 100 µM	10 to 100 µM
O=C(O)COc1cnc(N[C@H]2CC[C@@H](Oc3nc(N4CCOCC4)cc4ncc(C(=O)O)cc34)CC2)nc1 [Compound 181, 5-(((1s,4s)-4-((5-(carboxymethoxy)pyrimidin-2-yl)amino)cyclohexyl)oxy)-7-morpholino-1,6-naphthyridine-3-carboxylic acid]	< 0.5 nM	10000 to 30000 nM		10 to 100 µM	10 to 100 µM
O=S(=O)(Nc1cnc2cc(N3CCOCC3)nc(O[C@H]3CC[C@@H](Nc4ncccn4)CC3)c2c1)C1CCC1 [Compound 191, N-(7-morpholino-5-(((1s,4s)-4-(pyrimidin-2-ylamino)cyclohexyl)oxy)-1,6-naphthyridin-3-yl)cyclobutanesulfonamide]	1 to 10 nM	100 to 1000 nM		10 to 100 µM	10 to 100 µM
CN(C)S(=O)(=O)Nc1cnc2cc(N3CCOCC3)nc(O[C@H]3CC[C@@H](Nc4ncccn4)CC3)c2c1 [Compound 194, N-[(1s,4s)-4-({3-[(dimethylsulfamoyl)amino]-7-(morpholin-4-yl)-1,6-naphthyridin-5-yl}oxy)cyclohexyl]pyrimidin-2-amine]	< 0.5 nM	100 to 1000 nM		1 to 10 µM	1 to 10 µM
O=S1(=O)CCCN1c1cnc2cc(N3CCOCC3)nc(O[C@H]3CC[C@@H](Nc4ncccn4)CC3)c2c1 [Compound 195, 2-(7-morpholino-5-(((1s,4s)-4-(pyrimidin-2-ylamino)cyclohexyl)oxy)-1,6-naphthyridin-3-yl)isothiazolidine 1,1-dioxide]	10 to 150 nM	1000 to 10000 nM		10 to 100 µM	10 to 100 µM
NC(=O)Nc1cnc2cc(N3CCOCC3)nc(O[C@H]3CC[C@@H](Nc4ncccn4)CC3)c2c1 [Compound 196, 1-(7-morpholino-5-(((1s,4s)-4-(pyrimidin-2-ylamino)cyclohexyl)oxy)-1,6-naphthyridin-3-yl)urea]	1 to 10 nM	100 to 1000 nM		1 to 10 µM	1 to 10 µM
c1ccc(CSc2cnc3cc(N4CCOCC4)nc(O[C@H]4CC[C@@H](Nc5ncccn5)CC4)c3c2)cc1 [Compound 200c, N-((1s,4s)-4-((3-(benzylthio)-7-morpholino-1,6-naphthyridin-5-yl)oxy)cyclohexyl)pyrimidin-2-amine]	10 to 150 nM	10000 to 30000 nM		10 to 100 µM	10 to 100 µM
CSc1cnc2cc(N3CCOCC3)nc(O[C@H]3CC[C@@H](Nc4ncccn4)CC3)c2c1 [Compound 200d, N-((1s,4s)-4-((3-(methylthio)-7-morpholino-1,6-naphthyridin-5-yl)oxy)cyclohexyl)pyrimidin-2-amine]	1 to 10 nM	100 to 1000 nM		1 to 10 µM	1 to 10 µM
